# Source: PMC10769797 (The Oncologist, 2023)
# Test system: patients with advanced solid tumors
# Assay: Phase I dose-escalation safety: adverse events
# Assay type: in vivo, human
smiles,measurement,setting,value
Cc1cc(NC2CCN(C(=O)OC3CCN(C(=O)/C=C/CN(C)C)C3)CC2)n2ncc(C(C)C)c2n1 (centres unmarked) [LY3405105],Patients with ≥1 SAE related to study treatment,"QD (N = 43), Any grade",7 (16) n (%)
same,Patients with ≥1 TRAE,"QD (N = 43), Any grade",29 (67) n (%)
same,SAE related to study treatment: Abdominal pain,"QD (N = 43), Any grade",1 (2) n (%)
same,SAE related to study treatment: Acute kidney injury,"QD (N = 43), Any grade",1 (2) n (%)
same,SAE related to study treatment: Alanine aminotransferase increase,"QD (N = 43), Any grade",1 (2) n (%)
same,SAE related to study treatment: Diarrhea,"QD (N = 43), Any grade",2 (5) n (%)
same,SAE related to study treatment: Dyspnea,"QD (N = 43), Any grade",1 (2) n (%)
same,SAE related to study treatment: Hypotension,"QD (N = 43), Any grade",1 (2) n (%)
same,SAE related to study treatment: Mucosal inflammation,"QD (N = 43), Any grade",1 (2) n (%)
same,SAE related to study treatment: Nausea,"QD (N = 43), Any grade",1 (2) n (%)
same,SAE related to study treatment: Ophthalmic herpes zoster,"QD (N = 43), Any grade",1 (2) n (%)
same,SAE related to study treatment: Platelet count decrease,"QD (N = 43), Any grade",1 (2) n (%)
same,TRAE: Abdominal pain,"QD (N = 43), Any grade",6 (14) n (%)
same,TRAE: Anemia,"QD (N = 43), Any grade",5 (12) n (%)
same,TRAE: Asthenia,"QD (N = 43), Any grade",2 (5) n (%)
same,TRAE: Diarrhea,"QD (N = 43), Any grade",18 (42) n (%)
same,TRAE: Fatigue,"QD (N = 43), Any grade",8 (19) n (%)
same,TRAE: Nausea,"QD (N = 43), Any grade",9 (21) n (%)
same,TRAE: Platelet count decrease,"QD (N = 43), Any grade",6 (14) n (%)
same,TRAE: Vomiting,"QD (N = 43), Any grade",8 (19) n (%)
same,Patients with ≥1 SAE related to study treatment,"QD (N = 43), ≥Grade 3",6 (14) n (%)
same,Patients with ≥1 TRAE,"QD (N = 43), ≥Grade 3",10 (23) n (%)
same,SAE related to study treatment: Abdominal pain,"QD (N = 43), ≥Grade 3",0 n (%)
same,SAE related to study treatment: Acute kidney injury,"QD (N = 43), ≥Grade 3",1 (2) n (%)
same,SAE related to study treatment: Alanine aminotransferase increase,"QD (N = 43), ≥Grade 3",1 (2) n (%)
same,SAE related to study treatment: Diarrhea,"QD (N = 43), ≥Grade 3",2 (5) n (%)
same,SAE related to study treatment: Dyspnea,"QD (N = 43), ≥Grade 3",1 (2) n (%)
same,SAE related to study treatment: Hypotension,"QD (N = 43), ≥Grade 3",0 n (%)
same,SAE related to study treatment: Mucosal inflammation,"QD (N = 43), ≥Grade 3",1 (2) n (%)
same,SAE related to study treatment: Nausea,"QD (N = 43), ≥Grade 3",1 (2) n (%)
same,SAE related to study treatment: Ophthalmic herpes zoster,"QD (N = 43), ≥Grade 3",1 (2) n (%)
same,SAE related to study treatment: Platelet count decrease,"QD (N = 43), ≥Grade 3",1 (2) n (%)
same,TRAE: Abdominal pain,"QD (N = 43), ≥Grade 3",0 n (%)
same,TRAE: Anemia,"QD (N = 43), ≥Grade 3",2 (5) n (%)
same,TRAE: Asthenia,"QD (N = 43), ≥Grade 3",0 n (%)
same,TRAE: Diarrhea,"QD (N = 43), ≥Grade 3",2 (5) n (%)
same,TRAE: Fatigue,"QD (N = 43), ≥Grade 3",1 (2) n (%)
same,TRAE: Nausea,"QD (N = 43), ≥Grade 3",1 (2) n (%)
same,TRAE: Platelet count decrease,"QD (N = 43), ≥Grade 3",3 (7) n (%)
same,TRAE: Vomiting,"QD (N = 43), ≥Grade 3",0 n (%)
same,Maximum tolerated dose (MTD),"QD, oral monotherapy, patients",20 mg
same,Recommended phase II dose (RP2D),"QD, oral monotherapy, patients",20 mg
same,Patients with ≥1 SAE related to study treatment,"TIW (N = 11), Any grade",0 n (%)
same,Patients with ≥1 TRAE,"TIW (N = 11), Any grade",6 (55) n (%)
same,SAE related to study treatment: Abdominal pain,"TIW (N = 11), Any grade",0 n (%)
same,SAE related to study treatment: Acute kidney injury,"TIW (N = 11), Any grade",0 n (%)
same,SAE related to study treatment: Alanine aminotransferase increase,"TIW (N = 11), Any grade",0 n (%)
same,SAE related to study treatment: Diarrhea,"TIW (N = 11), Any grade",0 n (%)
same,SAE related to study treatment: Dyspnea,"TIW (N = 11), Any grade",0 n (%)
same,SAE related to study treatment: Hypotension,"TIW (N = 11), Any grade",0 n (%)
same,SAE related to study treatment: Mucosal inflammation,"TIW (N = 11), Any grade",0 n (%)
same,SAE related to study treatment: Nausea,"TIW (N = 11), Any grade",0 n (%)
same,SAE related to study treatment: Ophthalmic herpes zoster,"TIW (N = 11), Any grade",0 n (%)
same,SAE related to study treatment: Platelet count decrease,"TIW (N = 11), Any grade",0 n (%)
same,TRAE: Abdominal pain,"TIW (N = 11), Any grade",0 n (%)
same,TRAE: Anemia,"TIW (N = 11), Any grade",1 (9) n (%)
same,TRAE: Asthenia,"TIW (N = 11), Any grade",4 (36) n (%)
same,TRAE: Diarrhea,"TIW (N = 11), Any grade",0 n (%)
same,TRAE: Fatigue,"TIW (N = 11), Any grade",0 n (%)
same,TRAE: Nausea,"TIW (N = 11), Any grade",1 (9) n (%)
same,TRAE: Platelet count decrease,"TIW (N = 11), Any grade",0 n (%)
same,TRAE: Vomiting,"TIW (N = 11), Any grade",0 n (%)
same,Patients with ≥1 SAE related to study treatment,"TIW (N = 11), ≥Grade 3",0 n (%)
same,Patients with ≥1 TRAE,"TIW (N = 11), ≥Grade 3",0 n (%)
same,SAE related to study treatment: Abdominal pain,"TIW (N = 11), ≥Grade 3",0 n (%)
same,SAE related to study treatment: Acute kidney injury,"TIW (N = 11), ≥Grade 3",0 n (%)
same,SAE related to study treatment: Alanine aminotransferase increase,"TIW (N = 11), ≥Grade 3",0 n (%)
same,SAE related to study treatment: Diarrhea,"TIW (N = 11), ≥Grade 3",0 n (%)
